In patent US20140050779A1, “[…]-2 INHIBITORS AND USES THEREOF” (SINGAPORE HEALTH SERVICES PTE. LTD., priority 2011, published 2014):

Assays:
[1] = molecular target: T1, hM2 (Homo sapiens, UniProt P08172); experiment: biochemical
T1 sequence (P08172 1-466): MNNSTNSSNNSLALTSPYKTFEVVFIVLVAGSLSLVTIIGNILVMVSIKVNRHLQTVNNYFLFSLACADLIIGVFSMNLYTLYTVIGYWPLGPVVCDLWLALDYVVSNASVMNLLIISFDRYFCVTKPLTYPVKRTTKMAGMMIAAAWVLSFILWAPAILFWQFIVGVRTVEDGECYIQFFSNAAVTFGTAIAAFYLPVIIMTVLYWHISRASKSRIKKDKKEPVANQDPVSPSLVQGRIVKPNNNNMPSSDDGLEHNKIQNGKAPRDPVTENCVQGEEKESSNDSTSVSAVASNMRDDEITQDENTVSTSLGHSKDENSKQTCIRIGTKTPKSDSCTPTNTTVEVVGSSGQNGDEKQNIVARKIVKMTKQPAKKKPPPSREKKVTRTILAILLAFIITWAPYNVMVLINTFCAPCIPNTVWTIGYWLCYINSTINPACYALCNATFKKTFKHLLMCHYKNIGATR
Description: In some embodiments, the TG-2 inhibitors described herein can target the respective TG-2 protein and/or the expression of TGM-2. In other embodiments, the TG-2 inhibitors can further target at least one muscarinic receptor, for example M2 or M3 or inhibit the expression of at least one muscarinic receptor for example, M2 or M3.

[2] = tested on: TG-1; experiment: Western blot of TG proteins in human scleral fibroblasts after muscarinic agents; assay type: cell-based; settings: 0.01-10 μM for 5 days
[3] = tested on: TG-5; experiment: as above; assay type: cell-based; settings: 0.01-10 μM for 5 days
[4] = tested on: TG-1; experiment: Western blot of TG proteins in mouse scleral fibroblasts after muscarinic agents; assay type: cell-based; settings: 0.01-10 μM for 5 days
[5] = tested on: TG-3; experiment: as above; assay type: cell-based; settings: 0.01-10 μM for 5 days
[6] = tested on: TGase 5 transcript; experiment: qPCR of TGases mRNA in mouse scleral fibroblasts after muscarinic agents; assay type: cell-based; settings: 0.01-10 μM for 5 days, qPCR normalized to GAPDH
Procedure: (§1) P2 cultured mouse scleral fibroblasts were treated with atropine or carbachol at different concentrations of 0.01 μM, 0.1 μM, […], 5 μM and 10 μM for 5 days. Following 5 days of treatment, the total RNA was extracted from these cells and TGases transcript level was quantified via qPCR analysis. Height of bars show the means of three independent samples and error bars represent standard deviation. Values are normalized against GAPDH house keeping genes.
(§2) All cells used in examples described herein were between passages 2-4. Passaged cells were plated at a concentration of 2×10^5/mL into 6 well plates containing DMEM with 10% FBS. The cells were seen to attach to the bottom of the culture wells after 4 hours. Old media was removed from wells and 1 mL of drug was added with fresh full medium and incubated at 37° C. Fresh drugs were replaced daily consecutively for the next 5 days to avoid oxidation. The drugs/media was removed and wells were washed twice with 1×PBS. 200 μl of RIPA lysis buffer was added per well and incubated for 5 minutes and cells were scrapped into an eppendorf tube. The cells were stored at −20° C. until sonication. The cells were sonicated on ice thrice at 20% output power for 5 seconds each time and rested 1 minute in between each turn. Cell debris was spun down at 12000 rpm for 20 minutes. The supernatant was poured into a new eppendorf tube and cell concentrations were determined using the Dc Protein assay Kit (Bio-Rad, MA). Passaged cells were plated at a concentration of 1×10^5 into 6 well plates containing DMEM with 10% FBS. The cells were seen to attach to the bottom of the culture wells after 4 hours. Freshly prepared muscarinic agents' at base line, 0.1, 1, 10 and 100 μM concentrations were added for 5 days (Table 2). The culture medium was removed and fresh medium containing the same muscarinic drug added every day to avoid drug changes such as atropine oxidation. Cell lysate was collected for relative quantitative (q) PCR and protein analysis at day 5.
(§3) Total RNA was isolated from cultured human and mouse scleral fibroblasts using TRIzol reagent (Invitrogen life technologies, USA) in accordance with the manufacturer's instructions Chomczynski P, Sacchi N., “Single-step method of RNA isolation by acid guanidinium thiocyanate-phenol-chloroform extraction”, Anal. Biochem. 1987 April; 162(1):156-9. Genomic DNA was removed by digestion with DNase I (Amp Grade; Invitrogen-Gibco) for 15 minutes at room temperature. One microgram of total RNA was reverse-transcribed with random hexamers by using a first-strand cDNA synthesis kit (Invitrogen-Gibco). qPCR was performed in a 384-well plate format on an Roche 480 LightCycler Detection System (Roche Applied Science, Mannheim, Germany) with efficiency corrected software 4.0. PCR was performed using 50 ng of cDNA of each sample. The pre-validated hydrolysis probes for TG-2 were from human and mouse universal probe library (Roche, CA) and the primers for human and mouse are shown in Table 3. GAPDH Internal Standard (Roche) was used as an endogenous control. To standardize and evaluate scleral gene expression, aliquots of the same cDNA (50 ng) preparation were used as templates in all PCR reactions. The data was analyzed by comparative CT (MCT) method as previously described in Brink N, Szamel M, Young A R, Wittern K P, Bergemann J., “Comparative quantification of IL-1, IL-10, Il-10r, TNF and IL-7 mRNA levels in UV-irradiated human skin in vivo”, Inflamm Res. 2000 June; 49(6):290-6.

[7] = tested on: TGase-3 transcript; experiment: as above; assay type: cell-based; settings: 0.01-10 μM for 5 days, qPCR normalized to GAPDH
Procedure: as §1, §2, §3

[8] = tested on: TG-2; experiment: TG-2 colorimetric microassay (transamidase activity) in lysate of treated mouse scleral fibroblasts; assay type: cell-based; settings: murine scleral derived fibroblasts, 0.01-10 μM for 5 days

SMILES	Kd [1]	TG-1 protein level [2]	TG-5 protein level [3]	TG-1 protein level [4]	TG-3 protein level [5]	TGase 5 transcript level [6]	TGase-3 transcript level [7]	transamidase (cross-linking) activity of TG-2 [8]
C[C@@H]1OC(=O)[C@H]2C[C@H]3CCCC[C@@H]3[C@@H](/C=C/[C@H]3CCC[C@H](C)N3C)[C@@H]12 [himbacine]	4 nM	–	–	–	–	–	–	–
CN1[C@@H]2CC[C@H]1C[C@@H](OC(=O)C(CO)c1ccccc1)C2 (some centres unmarked) [atropine]	–	reduced	reduced	reduced	increased	down regulated	upregulated	reduction
